Reference: patent publication US20180201592A1, “2-AMINO-1,3,4-THIADIAZINE AND 2-AMINO-1,3,4-OXADIAZINE BASED ANTIFUNGAL AGENTS” (F2G Limited, priority 2015, published 2018)

Legend:
Conditions in all cases: banded MIC grade
A. fumigatus 210 = assay: Minimum inhibitory concentration, YAG medium; assay type: cell-based, Aspergillus fumigatus
Procedure: (§1) Between 1 and 5 mgs of compound were accurately weighed out into a sterile Eppendorf tube. The compound was dissolved in DMSO to give a solution containing 5 mg/mL. Tubes were stored at −20° C. until required.
(§2) On the day of testing thawed solutions were vortex mixed to ensure homogeneity. 30 μL of solution was removed and added to 570 μL of sterile water in a separate sterile Eppendorf. The thoroughly mixed solution was used to prepare a series of doubling dilutions in water, in a deep well plate. Thirteen replicate plates were prepared using a Minitrak by aspirating 20 μL from each well into eleven clear polystyrene 96 well plates.
(§3) Spores of Aspergillus spp. (Aspergillus fumigatus [two strains], Aspergillus terreus [two strains], Aspergillus niger and Aspergillus flavus) were harvested from cultures grown on Sabarauds agar for 5 days, and resuspended in PBS/Tween 80 to approx 1×10^7 cfu/mL. Each organism suspension was diluted in YAG medium (1% glucose, 1% ammonium chloride and 0.5% yeast extract) to 0.5-2×10^4cfu/mL. 80 μL of an organism suspension was added to each well of the plate containing drug dilutions.
(§4) This typically produced MIC plates with a drug range 50-0.05 mg/L and organism inocula of 1-2×10^4 cfu/mL for Aspergillus spp. All plates were incubated for 24 hrs at 35° C. Growth was assessed by monitoring the optical density at 485 nm for each well. The MIC of a compound is the lowest drug concentration that inhibits growth of an organism by >70% compared with a drug free control. MICs are recorded as mg/L. In cases where the MIC of an organism is […] the MIC is repeated using a concentration range of 0.5-0.0005 mg/L.

Aspergillus fumigatus = assay: Minimum inhibitory concentration, YAG medium; assay type: cell-based
Procedure: as §1, §2, §3, §4

Aspergillus terreus = assay: Minimum inhibitory concentration, YAG medium; assay type: cell-based
Procedure: (§5) The compound was dissolved in DMSO to give a solution containing 5 mg/mL. Tubes were stored at −20° C. until required. On the day of testing thawed solutions were vortex mixed to ensure homogeneity. 30 μL of solution was removed and added to 570 μL of sterile water in a separate sterile Eppendorf. The thoroughly mixed solution was used to prepare a series of doubling dilutions in water, in a deep well plate. Thirteen replicate plates were prepared using a Minitrak by aspirating 20 μL from each well into eleven clear polystyrene 96 well plates. Spores of Aspergillus spp. […] All plates were incubated for 24 hrs at 35° C. Growth was assessed by monitoring the optical density at 485 nm for each well. […] MICs are recorded as mg/L.

Aspergillus flavus = assay: Minimum inhibitory concentration, YAG medium; assay type: cell-based
Procedure: as §5

Aspergillus niger = assay: Minimum inhibitory concentration, YAG medium; assay type: cell-based
Procedure: as §5

A. terreus 49 = assay: Minimum inhibitory concentration, YAG medium; assay type: cell-based, Aspergillus terreus
Procedure: as §5

C. parapsilosis = assay: Minimum inhibitory concentration, RPMI medium; assay type: cell-based
Procedure: as §5, with “Assays were also performed in RPMI medium (Roswell Park Memorial Media 1640). To perform MIC tests in this medium, dilutions” for “Spores”, “compounds are prepared in microtitre plates as described above.” for “Aspergillus spp.”, “24-48” for “24”, “The following organisms were tested: […]” for “MICs are recorded as mg/L.”

C. albicans = assay: Minimum inhibitory concentration, RPMI medium; assay type: cell-based
Procedure: as §5, with “Assays were also performed in RPMI medium (Roswell Park Memorial Media 1640). To perform MIC tests in this medium, dilutions” for “Spores”, “compounds are prepared in microtitre plates as described above.” for “Aspergillus spp.”, “24-48” for “24”, “The following organisms were tested: […]” for “MICs are recorded as mg/L.”

C. tropicalis = assay: Minimum inhibitory concentration, RPMI medium; assay type: cell-based
Procedure: as §5, with “Assays were also performed in RPMI medium (Roswell Park Memorial Media 1640). To perform MIC tests in this medium, dilutions” for “Spores”, “compounds are prepared in microtitre plates as described above.” for “Aspergillus spp.”, “24-48” for “24”, “The following organisms were tested: […]” for “MICs are recorded as mg/L.”

| Structure (SMILES) | MIC grade, A. FUMIGATUS 210, YAG media (A. fumigatus 210) | MIC grade, A. FUMIGATUS, YAG media (Aspergillus fumigatus) | MIC grade, A. TERREUS, YAG media (Aspergillus terreus) | MIC grade, A. FLAVUS, YAG media (Aspergillus flavus) | MIC grade, A. NIGER, YAG media (Aspergillus niger) | MIC grade, A. TERREUS 49, YAG media (A. terreus 49) | MIC grade, C. PARAPSILOSIS, RPMI media (C. parapsilosis) | MIC grade, C. ALBICANS, RPMI media (C. albicans) | MIC grade, C. TROPICALIS, RPMI media (C. tropicalis) |
| --- | --- | --- | --- | --- | --- | --- | --- | --- | --- |
| NC1=NN=C(CCCCCN2C(=O)c3ccccc3C2=O)CS1 | 4 (4: <0.2 mg/L) | 4 (4: <0.2 mg/L) | 4 (4: <0.2 mg/L) | 4 (4: <0.2 mg/L) | 4 (4: <0.2 mg/L) | 4 (4: <0.2 mg/L) | 3 (3: 1-5 mg/L) | 1 (1: ≥20 mg/L) | 1 (1: ≥20 mg/L) |
| NC1=NN=C(CCCCc2cc3ccccc3o2)CS1 | 3 (3: 0.2-1 mg/L) | 3 (3: 0.2-1 mg/L) | 4 (4: <0.2 mg/L) | 4 (4: <0.2 mg/L) | 3 (3: 0.2-1 mg/L) | 3 (3: 0.2-1 mg/L) | 4 (4: <1 mg/L) | 3 (3: 1-5 mg/L) | 3 (3: 1-5 mg/L) |
| COCCCCC1=NN=C(N)SC1 | 4 (4: <0.2 mg/L) | 3 (3: 0.2-1 mg/L) | 3 (3: 0.2-1 mg/L) | 3 (3: 0.2-1 mg/L) | 3 (3: 0.2-1 mg/L) | 3 (3: 0.2-1 mg/L) | 4 (4: <1 mg/L) | 3 (3: 1-5 mg/L) | 3 (3: 1-5 mg/L) |
| NC1=NN=C(CCCCCc2ccccn2)CS1 | 4 (4: <0.2 mg/L) | 3 (3: 0.2-1 mg/L) | 3 (3: 0.2-1 mg/L) | 3 (3: 0.2-1 mg/L) | 4 (4: <0.2 mg/L) | 4 (4: <0.2 mg/L) | 3 (3: 1-5 mg/L) | 2 (2: 5-20 mg/L) | 2 (2: 5-20 mg/L) |
| NC1=NN=C(CCCCCOc2ccc(F)cc2)CS1 | 4 (4: <0.2 mg/L) | 4 (4: <0.2 mg/L) | 4 (4: <0.2 mg/L) | 4 (4: <0.2 mg/L) | 4 (4: <0.2 mg/L) | 4 (4: <0.2 mg/L) | 4 (4: <1 mg/L) | 4 (4: <1 mg/L) | 4 (4: <1 mg/L) |
| CN(CCCCCC1=NN=C(N)SC1)c1ccccc1 | 2 (2: 1-5 mg/L) | 2 (2: 1-5 mg/L) | 3 (3: 0.2-1 mg/L) | 3 (3: 0.2-1 mg/L) | 3 (3: 0.2-1 mg/L) | 3 (3: 0.2-1 mg/L) | 2 (2: 5-20 mg/L) | 1 (1: ≥20 mg/L) | 1 (1: ≥20 mg/L) |
| NC1=NN=C(CCCCCOCc2ccccc2)CS1 | 4 (4: <0.2 mg/L) | 4 (4: <0.2 mg/L) | 3 (3: 0.2-1 mg/L) | 4 (4: <0.2 mg/L) | 3 (3: 0.2-1 mg/L) | 4 (4: <0.2 mg/L) | 4 (4: <1 mg/L) | 3 (3: 1-5 mg/L) | 3 (3: 1-5 mg/L) |
| COCCCCCC1=CSC(=N)NN1C | 4 (4: <0.2 mg/L) | 3 (3: 0.2-1 mg/L) | 3 (3: 0.2-1 mg/L) | 4 (4: <0.2 mg/L) | 3 (3: 0.2-1 mg/L) | 4 (4: <0.2 mg/L) | 4 (4: <1 mg/L) | 4 (4: <1 mg/L) | 3 (3: 1-5 mg/L) |
| COCCCCCCC1=NN=C(N)SC1 | 4 (4: <0.2 mg/L) | 4 (4: <0.2 mg/L) | 4 (4: <0.2 mg/L) | 4 (4: <0.2 mg/L) | 4 (4: <0.2 mg/L) | 4 (4: <0.2 mg/L) | 4 (4: <1 mg/L) | 4 (4: <1 mg/L) | 3 (3: 1-5 mg/L) |
| COCCCCCCCC1=NN=C(N)SC1 | 4 (4: <0.2 mg/L) | 4 (4: <0.2 mg/L) | 4 (4: <0.2 mg/L) | 4 (4: <0.2 mg/L) | 4 (4: <0.2 mg/L) | 4 (4: <0.2 mg/L) | 4 (4: <1 mg/L) | 4 (4: <1 mg/L) | 4 (4: <1 mg/L) |
| NC1=NN=C(CCCCCCCOc2ccccc2)CS1 | 3 (3: 0.2-1 mg/L) | 4 (4: <0.2 mg/L) | 4 (4: <0.2 mg/L) | 4 (4: <0.2 mg/L) | 4 (4: <0.2 mg/L) | 4 (4: <0.2 mg/L) | 4 (4: <1 mg/L) | 3 (3: 1-5 mg/L) | 3 (3: 1-5 mg/L) |
| CCCCC/C=C/C1=NN=C(N)SC1 | 2 (2: 1-5 mg/L) | 2 (2: 1-5 mg/L) | 2 (2: 1-5 mg/L) | 2 (2: 1-5 mg/L) | 2 (2: 1-5 mg/L) | 2 (2: 1-5 mg/L) | 2 (2: 5-20 mg/L) | 2 (2: 5-20 mg/L) | 1 (1: ≥20 mg/L) |
| NC1=NN=C(CCCCCC(=O)O)CS1 | 2 (2: 1-5 mg/L) | 2 (2: 1-5 mg/L) | 2 (2: 1-5 mg/L) | 2 (2: 1-5 mg/L) | 2 (2: 1-5 mg/L) | 2 (2: 1-5 mg/L) | 1 (1: ≥20 mg/L) | 1 (1: ≥20 mg/L) | 1 (1: ≥20 mg/L) |
| CCCCOCCC1=CNN=C(N)S1 | 2 (2: 1-5 mg/L) | 2 (2: 1-5 mg/L) | 2 (2: 1-5 mg/L) | 2 (2: 1-5 mg/L) | 1 (1: ≥5 mg/L) | 2 (2: 1-5 mg/L) | 1 (1: ≥20 mg/L) | 1 (1: ≥20 mg/L) | 1 (1: ≥20 mg/L) |
| CC(C)OC(=O)CC1=NN=C(N)SC1 | – | – | – | – | – | – | 2 (2: 5-20 mg/L) | 1 (1: ≥20 mg/L) | 1 (1: ≥20 mg/L) |
